Test results as given in ChEMBL document CHEMBL1955760, “Pyrrolovesamicols--synthesis, structure and VAChT binding of two 4-fluorobenzoyl regioisomers” (Bioorg Med Chem Lett, 2012).

Columns and labels:
[1] = target: T1, Vesicular acetylcholine transporter (Homo sapiens, UniProt Q16572); experiment: Binding affinity to VAchT
T1 sequence (Q16572 whole entry): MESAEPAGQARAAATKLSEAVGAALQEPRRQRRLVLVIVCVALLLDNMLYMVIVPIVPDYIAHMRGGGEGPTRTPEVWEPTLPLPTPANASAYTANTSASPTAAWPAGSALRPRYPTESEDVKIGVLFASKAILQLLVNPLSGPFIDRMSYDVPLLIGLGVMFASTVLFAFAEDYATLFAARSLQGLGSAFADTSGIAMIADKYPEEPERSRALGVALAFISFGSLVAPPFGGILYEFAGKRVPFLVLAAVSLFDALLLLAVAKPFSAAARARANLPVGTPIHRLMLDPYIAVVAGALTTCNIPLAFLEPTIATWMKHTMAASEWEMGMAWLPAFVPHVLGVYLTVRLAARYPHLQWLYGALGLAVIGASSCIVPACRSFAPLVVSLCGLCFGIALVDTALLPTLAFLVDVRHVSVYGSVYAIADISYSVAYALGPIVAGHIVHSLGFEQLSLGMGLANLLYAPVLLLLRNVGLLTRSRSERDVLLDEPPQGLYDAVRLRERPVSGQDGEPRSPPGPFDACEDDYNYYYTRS

[2] = target: T1, Vesicular acetylcholine transporter; experiment: Binding affinity to VAchT transfected in rat PC12 cells; format: cell-based, PC-12
[3] = target: T2, Vesicular acetylcholine transporter (Rattus norvegicus, UniProt Q62666); experiment: Displacement of (-)-[3H]vesamicol from rat VAchT transfected in rat PC12 cells after 2 hrs by scintillation counting; format: cell-based, PC-12
T2 sequence (Q62666 whole entry): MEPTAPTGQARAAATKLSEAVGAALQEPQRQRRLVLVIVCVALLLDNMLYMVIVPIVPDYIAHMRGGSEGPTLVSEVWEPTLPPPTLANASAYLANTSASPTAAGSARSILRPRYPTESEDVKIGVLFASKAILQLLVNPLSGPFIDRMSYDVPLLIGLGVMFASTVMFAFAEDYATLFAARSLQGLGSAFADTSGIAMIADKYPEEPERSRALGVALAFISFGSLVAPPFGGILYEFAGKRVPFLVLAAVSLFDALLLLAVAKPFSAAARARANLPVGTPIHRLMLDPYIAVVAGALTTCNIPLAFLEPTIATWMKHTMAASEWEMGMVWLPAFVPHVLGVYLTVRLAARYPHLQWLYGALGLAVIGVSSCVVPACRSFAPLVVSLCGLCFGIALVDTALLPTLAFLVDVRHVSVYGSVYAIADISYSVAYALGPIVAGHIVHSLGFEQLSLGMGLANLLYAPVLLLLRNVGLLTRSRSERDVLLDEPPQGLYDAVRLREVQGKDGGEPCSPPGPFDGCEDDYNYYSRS

Row | SMILES | Ki [1] [nM] | Ki [3] [nM] | other results
1 | CCN(C(=O)C[18F])c1cccc2c1C[C@@H](N1CCC(c3ccccc3)CC1)[C@H](O)C2 | 0.32 | – | –
2 | O=C(c1ccc([18F])cc1)N1CCOC2C[C@@H](O)[C@H](N3CCC(c4ccccc4)CC3)CC21 (mixture of isomers) | – | – | Ki [2]: 27.5 nM
3 | O=C(c1ccc(F)cc1)c1cc2c([nH]1)C[C@@H](N1CCC(c3ccccc3)CC1)[C@H](O)C2 (racemic) | – | 312 | –
4 | O=C(c1ccc(F)cc1)c1cc2c([nH]1)C[C@@H](O)[C@H](N1CCC(c3ccccc3)CC1)C2 (racemic) | – | 7320 | –
5 | O[C@@H]1CCN(Cc2ccc([18F])cc2)C[C@H]1N1CCC(c2ccccc2)CC1 (racemic) | 0.44 | – | –
